Measurements taken from PMC10824102, “Identification of small molecule inhibitors of G3BP-driven stress granule formation” (The Journal of Cell Biology, 2024).

Tests used:
[1] = biological target: T1, co-condensation of RNA, G3BP1, and caprin 1 (Homo sapiens, UniProt Q13283); assay: In vitro LLPS, three-component system (G3BP1, caprin 1, RNA); format: biochemical; settings: for IC50, inhibition of G3BP1-GFP in vitro phase separation / LogIC50, inhibition of G3BP1-GFP in vitro phase separation / IC50: 1.5 μM G3BP1, 1.5 μM caprin 1, 20 ng/μl total RNA; for IC50: read-out: IC50, inhibition of G3BP1-GFP in vitro phase separation; for co-condensation of caprin 1, G3BP1, and RNA: result in words; for HillSlope, inhibition of G3BP1-GFP in vitro phase separation: slope at the steepest part of the curve; for Bottom (lowest value of curve), percent inhibition of in vitro phase separation / Top (highest value of curve), percent inhibition of in vitro phase separation: three-component system
T1 construct: made in house; host or cells: E. coli BL21 (DE3)
T1 sequence (Q13283 whole entry): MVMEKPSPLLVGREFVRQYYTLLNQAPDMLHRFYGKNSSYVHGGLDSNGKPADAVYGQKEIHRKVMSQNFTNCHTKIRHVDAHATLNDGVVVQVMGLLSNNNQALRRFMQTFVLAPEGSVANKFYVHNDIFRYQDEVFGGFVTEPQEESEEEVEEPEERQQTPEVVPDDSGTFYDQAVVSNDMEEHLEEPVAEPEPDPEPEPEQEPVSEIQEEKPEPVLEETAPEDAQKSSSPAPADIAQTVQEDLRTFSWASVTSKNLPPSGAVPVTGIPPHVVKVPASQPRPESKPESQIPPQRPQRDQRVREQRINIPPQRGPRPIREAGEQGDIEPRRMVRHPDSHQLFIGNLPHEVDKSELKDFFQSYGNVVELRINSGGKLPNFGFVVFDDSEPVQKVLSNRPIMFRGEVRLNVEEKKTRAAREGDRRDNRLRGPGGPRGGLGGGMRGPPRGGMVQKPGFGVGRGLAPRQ
T1 sequence (Q13283 whole entry): as above
Method: LLPS assays were performed in 30 μl total volume at 25°C at pH 7.4 in buffer containing 37 mM Tris, pH 7.5, 116 mM NaCl, 0.33% NP-40, 2.6% glycerol, 0.5 mM DTT with 20 ng/μl total cellular RNA from U2OS cells and 1.425 μM G3BP1, 0.075 μM FLAG-GFP-G3BP1, and 1.5 μM caprin 1. Reactions were initiated by adding G3BP1/caprin 1 protein mix to cellular RNA, followed by 3 min of shaking at 450 rpm and then incubation for 70 min in the dark. For condensates formed with G3BP1 and RNA, 20 μM purified G3BP1 and 100 ng of total cellular RNA from HEK293T cells were added to a buffer consisting of 100 mM NaCl and 16.7 mM HEPES (pH 7.5) in the presence of the indicated dose of G3Ib or vehicle control.

[2] = tested on: TDP-43 localization to stress granules in CRISPR-modified U2OS cells; assay: Live imaging of GFP-TDP-43 and mRuby3-G3BP1 in CRISPR-modified U2OS cells; format: cell-based; settings: 50 μM pretreatment, 250 μM NaAsO2 for 30 min
Method: For preincubation of compounds, U2OS or HeLa cells stably expressing G3BP1-GFP or CRISPR-modified cells expressing TDP-43-GFP/G3BP1-GFP were seeded into eight-well Lab-Tek chambered cover glass (Nunc). At least 20 min prior to the experiment, 1 ml FluoroBrite DMEM media (Gibco) supplemented with 10% FBS and 4 mM L-glutamine was combined with 0.1% DMSO or G3I compound (5, 10, or 50 μM). This solution was vortexed for 5 s, added to the cells at 250 μl per well, and left to incubate on the microscope for 20 min. Conditions were maintained at 37°C and 5% CO2 using a Bold Line Cage Incubator (Okolab) and an objective heater (Bioptechs). During this incubation time, 5 xy fields were stored per condition, with each field having ∼20–30 cells within it. After the 20-min incubation, 250 μl of 500 μM or 1 mM (2×) sodium arsenite (Sigma-Aldrich) diluted in the FluoroBrite media with an appropriate amount of G3I compound or DMSO was added to the sample. Imaging began immediately after, with images at each xy field being taken every 1 min. For heat shock experiments, U2OS G3BP1-GFP-expressing cells were seeded into a 35-mm glass bottom dish (MatTek). Prior to the experiment, 1.5 ml FluoroBrite DMEM media (Gibco) supplemented with 10% FBS and 4 mM L-glutamine was combined with 0.1% DMSO or 50 μM G3I compound. The sample was incubated on the environmentally controlled microscope for 20 min. […]

[3] = biological target: T2, interaction between G3BP1 and endogenous caprin 1 (Homo sapiens, UniProt Q13283); assay: Coimmunoprecipitation of G3BP1-GFP with endogenous caprin 1 in U2OS lysates; format: biochemical; settings: increasing concentrations added to U2OS G3BP1-GFP lysates, GFP IP
T2 construct: expressed in transfected cells; host or cells: U2OS cells stably expressing G3BP1-GFP (lysate)
T2 sequence (Q13283 whole entry): as above
Method: U2OS cells expressing G3BP1-GFP were grown in 3-cm dishes to 100% confluency, at which point cells were collected and pelleted at 400 × g for 5 min. Pellets were either stored at −80°C or processed the same day by lysing with 200 μl in vivo lysis buffer (150 mM NaCl, 50 mM Tris [pH 7.5], 1 mM EDTA, 0.5% NP-40, and 10% glycerol, supplemented with 1 protease inhibitor tablet [11836170001; Roche]). Lysates were centrifuged at 13,000 × g at 4°C for 15 min, after which supernatants were transferred to a new tube and diluted with 200 μl lysis buffer containing indicated concentrations of G3I compounds. The mixture was then incubated with GFP-Trap (ChromoTek GFP-Trap Magnetic Agarose; Proteintech; gtma) for 2 h at 4°C. Beads were washed three times with lysis buffer, then incubated with 1× SDS sample buffer supplemented with 10% 2-mercaptoethanol, and boiled for 5 min at 95°C. Lysates were subjected to SDS-PAGE and then immunoblotted.
Samples were separated by SDS-PAGE and transferred to membranes. […] Membranes were visualized and quantified with an Odyssey Fc imaging system (LI-COR) and normalized to the amount of G3BP1 immunoprecipitated.

| SMILES | IC50, inhibition of G3BP1-GFP in vitro phase separation [1] | LogIC50, inhibition of G3BP1-GFP in vitro phase separation [1] | LogIC50, inhibition of G3BP1-GFP in vitro phase separation ([1]; listed as G3Ia') | IC50 [1] [µM] | co-condensation of caprin 1, G3BP1, and RNA [1] | HillSlope, inhibition of G3BP1-GFP in vitro phase separation [1] | HillSlope, inhibition of G3BP1-GFP in vitro phase separation ([1]; listed as G3Ia') | Bottom (lowest value of curve), percent inhibition of in vitro phase separation [1] | Top (highest value of curve), percent inhibition of in vitro phase separation [1] | LogIC50, inhibition of G3BP1-GFP in vitro phase separation ([1]; listed as G3Ib') | HillSlope, inhibition of G3BP1-GFP in vitro phase separation ([1]; listed as G3Ib') | TDP-43 localization to stress granules [2] | interaction between G3BP1 and endogenous caprin 1 [3] |
| --- | --- | --- | --- | --- | --- | --- | --- | --- | --- | --- | --- | --- | --- |
| COCCC(NC(=O)C(C)NC(=O)C(NC(=O)C(NC(=O)C(F)CC(C)(C)C)C(C)(C)O)C(C)c1ccccc1)C(=O)N(C)Cc1ccccc1 (stereo not shown) [G3Ia] | Unstable | 0.6508 | Unstable | 4.48 | disrupted the co-condensation | 1.354 | Unstable | Unstable | Unstable |  |  |  |  |
| CC(NC(=O)C(NC(=O)C(NC(=O)CCC(C)(C)C)C(C)(C)O)C(C)c1ccccc1)C(=O)N1CCCC1c1ccccc1 (stereo not shown) [G3Ib] | Unstable | 0.5379 |  | 3.45 | disrupted the co-condensation | 1.004 |  | 4.401 | 1.518 | Unstable | Unstable | not | dose-dependent reduction |
| CC(NC(=O)C(NC(=O)C(NC(=O)CCC(C)(C)C)C(C)(C)O)C(C)c1ccccc1)C(=O)N1CCCC1c1ccccc1 (stereo not shown) [G3Ib′] |  |  |  |  |  |  |  |  |  |  |  | a small proportion of TDP-43 localized to stress granules | no such effect |
